Laboratory results: PubChem BioAssay (NCI)
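All cell lines were grown in 96-well plates and treated with compound for 48 hours. The concentration for 50% growth inhibition is given as GI50. TGI denotes the concentration required for complete inhibition of growth.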

Legend:
Test in all cases: NCI anticancer screen, dose series, 48 h
786-0 renal = system: 786-0 renal
A549 NSCLC = system: A549 NSCLC
ACHN renal = system: ACHN renal
CAKI-1 renal = system: CAKI-1 renal
CCRF-CEM leukemia = system: CCRF-CEM leukemia
COLO 205 colon = system: COLO 205 colon
DU-145 prostate = system: DU-145 prostate
EKVX NSCLC = system: EKVX NSCLC
HCT-116 colon = system: HCT-116 colon
HCT-15 colon = system: HCT-15 colon
HOP-62 NSCLC = system: HOP-62 NSCLC
HOP-92 NSCLC = system: HOP-92 NSCLC
HS 578T breast = system: HS 578T breast
HT29 colon = system: HT29 colon
IGROV1 ovarian = system: IGROV1 ovarian
K-562 leukemia = system: K-562 leukemia
KM12 colon = system: KM12 colon
LOX IMVI melanoma = system: LOX IMVI melanoma
M14 melanoma = system: M14 melanoma
MALME-3M melanoma = system: MALME-3M melanoma
MCF7 breast = system: MCF7 breast
MDA-MB-231 breast = system: MDA-MB-231 breast
MDA-MB-435 = system: MDA-MB-435
MOLT-4 leukemia = system: MOLT-4 leukemia
NCI-H226 lung = system: NCI-H226 lung
NCI-H23 lung = system: NCI-H23 lung
NCI-H460 lung = system: NCI-H460 lung
NCI-H522 lung = system: NCI-H522 lung
NCI/ADR-RES ovarian = system: NCI/ADR-RES ovarian
OVCAR-3 ovarian = system: OVCAR-3 ovarian
OVCAR-4 ovarian = system: OVCAR-4 ovarian
OVCAR-5 ovarian = system: OVCAR-5 ovarian
OVCAR-8 ovarian = system: OVCAR-8 ovarian
PC-3 prostate = system: PC-3 prostate
RPMI-8226 leukemia = system: RPMI-8226 leukemia
RXF 393 renal = system: RXF 393 renal
SF-268 CNS = system: SF-268 CNS
SF-295 CNS = system: SF-295 CNS
SF-539 CNS = system: SF-539 CNS
SK-MEL-2 melanoma = system: SK-MEL-2 melanoma
SK-MEL-28 melanoma = system: SK-MEL-28 melanoma
SK-MEL-5 melanoma = system: SK-MEL-5 melanoma
SK-OV-3 ovarian = system: SK-OV-3 ovarian
SN12C renal = system: SN12C renal
SNB-19 CNS = system: SNB-19 CNS
SNB-75 CNS = system: SNB-75 CNS
SR leukemia = system: SR leukemia
SW-620 colon = system: SW-620 colon
TK-10 renal = system: TK-10 renal
U251 CNS = system: U251 CNS
UACC-257 melanoma = system: UACC-257 melanoma
UACC-62 melanoma = system: UACC-62 melanoma
UO-31 renal = system: UO-31 renal
A498 renal = system: A498 renal
HL-60(TB) leukemia = system: HL-60(TB) leukemia
HCC-2998 colon = system: HCC-2998 colon
T-47D breast = system: T-47D breast

Work on `CN(NC(=O)/C(=C\c1ccco1)NC(=O)c1ccccc1)c1cn[nH]c(=O)c1Cl` yielded a TGI (786-0 renal) of over 100 µM, a TGI (A549 NSCLC) of over 100 µM and a TGI (ACHN renal) of over 100 µM. It also gave a TGI (CAKI-1 renal) of over 100 µM, a TGI (CCRF-CEM leukemia) of 62.4 µM and a TGI (COLO 205 colon) of over 100 µM. The TGI (DU-145 prostate) was over 100 µM, the TGI (EKVX NSCLC) was over 100 µM and the TGI (HCT-116 colon) was over 100 µM. For the same molecule, the TGI (HCT-15 colon) was over 100 µM, the TGI (HOP-62 NSCLC) was over 100 µM and the TGI (HOP-92 NSCLC) was over 100 µM. The TGI (HS 578T breast) was over 100 µM, the TGI (HT29 colon) was over 100 µM and the TGI (IGROV1 ovarian) was over 100 µM. For the same molecule, the TGI (K-562 leukemia) was over 100 µM, the TGI (KM12 colon) was over 100 µM and the TGI (LOX IMVI melanoma) was 58.2 µM. It also gave a TGI (M14 melanoma) of over 100 µM, a TGI (MALME-3M melanoma) of over 100 µM and a TGI (MCF7 breast) of over 100 µM. It also gave a TGI (MDA-MB-231 breast) of over 100 µM, a TGI (MDA-MB-435) of over 100 µM and a TGI (MOLT-4 leukemia) of 93.3 µM. It also gave a TGI (NCI-H226 lung) of over 100 µM, a TGI (NCI-H23 lung) of over 100 µM and a TGI (NCI-H460 lung) of over 100 µM. The TGI (NCI-H522 lung) was 89.3 µM, the TGI (NCI/ADR-RES ovarian) was over 100 µM and the TGI (OVCAR-3 ovarian) was over 100 µM. It also gave a TGI (OVCAR-4 ovarian) of over 100 µM, a TGI (OVCAR-5 ovarian) of over 100 µM and a TGI (OVCAR-8 ovarian) of over 100 µM. It also gave a TGI (PC-3 prostate) of over 100 µM, a TGI (RPMI-8226 leukemia) of 50.5 µM and a TGI (RXF 393 renal) of over 100 µM. It also gave a TGI (SF-268 CNS) of over 100 µM, a TGI (SF-295 CNS) of over 100 µM and a TGI (SF-539 CNS) of 62 µM. For the same molecule, the TGI (SK-MEL-2 melanoma) was over 100 µM, the TGI (SK-MEL-28 melanoma) was over 100 µM and the TGI (SK-MEL-5 melanoma) was 94.9 µM. For the same molecule, the TGI (SK-OV-3 ovarian) was over 100 µM, the TGI (SN12C renal) was over 100 µM and the TGI (SNB-19 CNS) was over 100 µM. It also gave a TGI (SNB-75 CNS) of 84.2 µM, a TGI (SR leukemia) of over 100 µM and a TGI (SW-620 colon) of over 100 µM. It also gave a TGI (TK-10 renal) of over 100 µM, a TGI (U251 CNS) of over 100 µM and a TGI (UACC-257 melanoma) of over 100 µM. For the same molecule, the TGI (UACC-62 melanoma) was over 100 µM and the TGI (UO-31 renal) was over 100 µM.

`COc1cc(/C=C2\CN(S(=O)(=O)c3ccccc3)C/C(=C\c3cc(CN4CCCCC4)c(O)c(OC)c3)C2=O)cc(CN2CCCCC2)c1O` was tested, and the GI50 (ACHN renal) was 1.54 µM, the TGI (ACHN renal) was 2.93 µM and the GI50 (CCRF-CEM leukemia) was 2.62 µM. The TGI (CCRF-CEM leukemia) was 7.25 µM, the GI50 (DU-145 prostate) was 1.73 µM and the TGI (DU-145 prostate) was 3.19 µM. It also gave a GI50 (HCT-15 colon) of 1.79 µM, a TGI (HCT-15 colon) of 3.78 µM and a GI50 (HS 578T breast) of 1.63 µM. For the same molecule, the TGI (HS 578T breast) was 4.31 µM, the GI50 (KM12 colon) was 1.73 µM and the TGI (KM12 colon) was 3.41 µM. It also gave a GI50 (MALME-3M melanoma) of 1.74 µM, a TGI (MALME-3M melanoma) of 3.39 µM and a GI50 (MDA-MB-231 breast) of 1.77 µM. It also gave a TGI (MDA-MB-231 breast) of 3.47 µM, a GI50 (OVCAR-3 ovarian) of 1.72 µM and a TGI (OVCAR-3 ovarian) of 3.25 µM. It also gave a GI50 (PC-3 prostate) of 1.73 µM, a TGI (PC-3 prostate) of 3.4 µM and a GI50 (RPMI-8226 leukemia) of 2.29 µM. The TGI (RPMI-8226 leukemia) was 5.11 µM, the GI50 (SF-295 CNS) was 2.25 µM and the TGI (SF-295 CNS) was 5.01 µM. It also gave a GI50 (SK-OV-3 ovarian) of 1.93 µM, a TGI (SK-OV-3 ovarian) of 3.85 µM and a GI50 (SN12C renal) of 1.83 µM. The TGI (SN12C renal) was 3.63 µM, the GI50 (SNB-19 CNS) was 2 µM and the TGI (SNB-19 CNS) was 4.58 µM. It also gave a GI50 (UACC-62 melanoma) of 1.65 µM and a TGI (UACC-62 melanoma) of 3.44 µM.

`Cc1ccc(NC(=O)c2[nH]c(SCCN(C)C)nc2-c2ccc(F)cc2)cc1C#Cc1cnc2cccnn12` gave a GI50 (A498 renal) of 1.76 µM, a TGI (A498 renal) of 3.32 µM and a GI50 (CCRF-CEM leukemia) of 2.08 µM. The TGI (CCRF-CEM leukemia) was 6.92 µM, the GI50 (DU-145 prostate) was 1.83 µM and the TGI (DU-145 prostate) was 3.34 µM. It also gave a GI50 (HL-60(TB) leukemia) of 1.38 µM, a TGI (HL-60(TB) leukemia) of 3.14 µM and a GI50 (HOP-92 NSCLC) of 1.08 µM. It also gave a TGI (HOP-92 NSCLC) of 2.73 µM, a GI50 (K-562 leukemia) of 0.127 µM and a TGI (K-562 leukemia) of 1.55 µM. The GI50 (MOLT-4 leukemia) was 1.93 µM, the TGI (MOLT-4 leukemia) was 4.83 µM and the GI50 (PC-3 prostate) was 2.12 µM. The TGI (PC-3 prostate) was 4.89 µM, the GI50 (RPMI-8226 leukemia) was 1.91 µM and the TGI (RPMI-8226 leukemia) was 6.05 µM. The GI50 (SK-MEL-2 melanoma) was 1.35 µM, the TGI (SK-MEL-2 melanoma) was 3.16 µM and the GI50 (SK-OV-3 ovarian) was 1.92 µM. It also gave a TGI (SK-OV-3 ovarian) of 3.44 µM, a GI50 (SNB-75 CNS) of 1.59 µM and a TGI (SNB-75 CNS) of 2.99 µM. For the same molecule, the GI50 (SR leukemia) was 0.46 µM, the TGI (SR leukemia) was 2.22 µM and the GI50 (UACC-257 melanoma) was 1.88 µM. The TGI (UACC-257 melanoma) was 3.51 µM, the GI50 (UO-31 renal) was 1.38 µM and the TGI (UO-31 renal) was 2.79 µM.

With `CCOC(=O)c1sc2nc(-c3ccccc3)nn2c1CBr` the TGI (786-0 renal) was 2.95 µM, the TGI (A549 NSCLC) was over 10 µM and the TGI (CAKI-1 renal) was 2.83 µM. For the same molecule, the TGI (CCRF-CEM leukemia) was 0.642 µM, the TGI (COLO 205 colon) was 3.73 µM and the TGI (DU-145 prostate) was over 10 µM. The TGI (EKVX NSCLC) was over 10 µM, the TGI (HCC-2998 colon) was over 10 µM and the TGI (HL-60(TB) leukemia) was 1.34 µM. For the same molecule, the TGI (HOP-62 NSCLC) was over 10 µM, the TGI (HT29 colon) was 3.77 µM and the TGI (IGROV1 ovarian) was over 10 µM. For the same molecule, the TGI (K-562 leukemia) was 1.96 µM, the TGI (KM12 colon) was 4.14 µM and the TGI (LOX IMVI melanoma) was 3.17 µM. It also gave a TGI (M14 melanoma) of 2.85 µM, a TGI (MALME-3M melanoma) of 4.94 µM and a TGI (MCF7 breast) of 3.78 µM. It also gave a TGI (MDA-MB-231 breast) of 3.69 µM, a TGI (MOLT-4 leukemia) of 1.18 µM and a TGI (NCI-H23 lung) of 3.78 µM. It also gave a TGI (OVCAR-8 ovarian) of 4.03 µM, a TGI (PC-3 prostate) of 4.16 µM and a TGI (RPMI-8226 leukemia) of 4.25 µM. It also gave a TGI (RXF 393 renal) of 4.07 µM, a TGI (SF-268 CNS) of 4.19 µM and a TGI (SF-295 CNS) of over 10 µM. It also gave a TGI (SK-MEL-28 melanoma) of 3.41 µM, a TGI (SK-MEL-5 melanoma) of 3.49 µM and a TGI (SK-OV-3 ovarian) of over 10 µM. The TGI (SN12C renal) was 3.21 µM, the TGI (SNB-75 CNS) was 3.69 µM and the TGI (SR leukemia) was 1.51 µM. It also gave a TGI (SW-620 colon) of 3.88 µM, a TGI (T-47D breast) of 5.71 µM and a TGI (TK-10 renal) of 4.47 µM. It also gave a TGI (UACC-257 melanoma) of 3.92 µM.
